Experimental data as given in publication PMC9940855, “First-in-Class Dual Hybrid Carbonic Anhydrase Inhibitors and Transient Receptor Potential Vanilloid 1 Agonists Revert Oxaliplatin-Induced Neuropathy” (Journal of Medicinal Chemistry, 2023).
Entries after “also recorded” stand apart in the source; their conditions may differ.

What was measured:
TRPV1 receptor = target: T1, TRPV1 receptor (Homo sapiens, UniProt Q8NER1); assay: TRPV1 assay, Fluo-4NW fluorescence in SH-SY5Y-TRPV1 cells; type: cell-based; conditions: read-out: EC50 on TRPV1 receptor activity (agonism)
T1 construct: expressed in transfected cells
T1 sequence (Q8NER1 whole entry): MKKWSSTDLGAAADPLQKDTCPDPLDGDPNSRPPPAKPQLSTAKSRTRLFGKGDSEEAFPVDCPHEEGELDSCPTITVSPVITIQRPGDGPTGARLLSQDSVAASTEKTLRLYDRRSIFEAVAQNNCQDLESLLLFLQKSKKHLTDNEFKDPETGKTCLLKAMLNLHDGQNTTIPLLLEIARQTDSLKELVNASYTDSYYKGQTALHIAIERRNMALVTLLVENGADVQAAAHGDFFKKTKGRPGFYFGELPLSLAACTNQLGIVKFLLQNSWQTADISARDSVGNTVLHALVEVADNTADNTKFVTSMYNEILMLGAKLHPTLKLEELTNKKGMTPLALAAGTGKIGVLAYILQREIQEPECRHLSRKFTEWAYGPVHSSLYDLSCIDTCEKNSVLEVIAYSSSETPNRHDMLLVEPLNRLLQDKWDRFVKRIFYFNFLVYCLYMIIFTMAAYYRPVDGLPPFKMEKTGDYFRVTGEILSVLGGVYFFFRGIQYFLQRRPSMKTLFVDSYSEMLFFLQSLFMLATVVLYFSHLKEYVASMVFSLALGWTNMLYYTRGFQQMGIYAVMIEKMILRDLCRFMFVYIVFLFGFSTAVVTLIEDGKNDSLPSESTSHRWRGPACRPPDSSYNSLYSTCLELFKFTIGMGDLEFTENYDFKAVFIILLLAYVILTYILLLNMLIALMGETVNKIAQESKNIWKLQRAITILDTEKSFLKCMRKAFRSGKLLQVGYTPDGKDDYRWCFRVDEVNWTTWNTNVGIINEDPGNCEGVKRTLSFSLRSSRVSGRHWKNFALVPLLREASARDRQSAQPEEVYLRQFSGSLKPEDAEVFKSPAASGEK
Procedure: SH-SY5Y-TRPV1 cells (kindly provided by Johanna Lilja and Anna Forsby (University of Stockholm, Stockholm, Sweden))[40] were cultured in 96 wells. Upon 90% confluence had been reached, the cells were loaded with 5 μM Fluo-4NW for 1 h at 37 °C. […] Briefly, after measuring the basal fluorescence of the plate (four cycles), testing compounds were added to the plate, and the fluorescence was measured for additional 10 cycles; thereafter, 10 μM capsaicin was added with a microinjector and the fluorescence was monitored for an additional 10 cycles.

hCA IX = target: T2, hCA IX (Homo sapiens, UniProt Q16790); type: biochemical
T2 construct: made in house

hCA II = hCA II (Homo sapiens, UniProt P00918); conditions: for Ki: read-out: KI hCA II, stopped-flow CO2 hydrase assay, mean from three different assays, errors ±5–10%
hCA I = hCA I (Homo sapiens, UniProt P00915); conditions: read-out: KI hCA I; stopped-flow CO2 hydrase assay; mean from three different assays, errors ±5–10%
hCA I, sequence (P00915 whole entry): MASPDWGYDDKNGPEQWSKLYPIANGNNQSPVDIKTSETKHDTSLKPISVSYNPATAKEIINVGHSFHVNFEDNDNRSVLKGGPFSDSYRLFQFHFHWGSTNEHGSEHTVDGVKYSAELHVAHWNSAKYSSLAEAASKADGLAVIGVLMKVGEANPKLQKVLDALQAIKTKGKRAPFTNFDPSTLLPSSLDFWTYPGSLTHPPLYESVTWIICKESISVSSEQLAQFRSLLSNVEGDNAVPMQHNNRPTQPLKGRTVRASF

hCA XII = hCA XII (Homo sapiens, UniProt O43570); conditions: read-out: KI hCA XII; stopped-flow CO2 hydrase assay; mean from three different assays, errors ±5–10%
hCA XII, sequence (O43570 25-354): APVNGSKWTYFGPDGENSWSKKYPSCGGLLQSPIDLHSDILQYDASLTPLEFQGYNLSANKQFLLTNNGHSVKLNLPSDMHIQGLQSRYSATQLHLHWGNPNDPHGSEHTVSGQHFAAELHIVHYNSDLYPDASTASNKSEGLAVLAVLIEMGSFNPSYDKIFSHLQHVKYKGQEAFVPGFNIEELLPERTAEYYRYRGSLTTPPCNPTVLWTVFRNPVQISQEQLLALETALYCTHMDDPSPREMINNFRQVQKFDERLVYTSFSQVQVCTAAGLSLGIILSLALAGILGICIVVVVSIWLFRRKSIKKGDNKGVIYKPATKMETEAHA

hCA VII = hCA VII (Homo sapiens, UniProt P43166); conditions: read-out: KI hCA VII; stopped-flow CO2 hydrase assay; mean from three different assays, errors ±5–10%
hCA VII, sequence (P43166 whole entry): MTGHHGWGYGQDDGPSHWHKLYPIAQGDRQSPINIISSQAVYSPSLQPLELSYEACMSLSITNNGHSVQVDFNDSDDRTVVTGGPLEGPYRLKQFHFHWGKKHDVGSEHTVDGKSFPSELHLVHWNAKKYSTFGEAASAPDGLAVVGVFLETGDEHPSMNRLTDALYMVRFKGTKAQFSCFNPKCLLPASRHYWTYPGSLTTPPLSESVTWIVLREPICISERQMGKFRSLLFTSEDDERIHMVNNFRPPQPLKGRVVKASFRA

[1] = tested on: oxaliplatin-induced neuropathic pain (cold allodynia); assay: Cold plate test in mouse model of oxaliplatin-induced neuropathic pain; type: in vivo; conditions: p.o., acute; for pain-relieving effect (licking latency, Cold plate test), in words: 10–100 mg/kg; for time of peak pain-relieving effect post-administration: up to 100 mg/kg
hCA IV = hCA IV (Homo sapiens, UniProt P22748); conditions: read-out: KI hCA IV; stopped-flow CO2 hydrase assay; mean from three different assays, errors ±5–10%
hCA IV, sequence (P22748 19-312): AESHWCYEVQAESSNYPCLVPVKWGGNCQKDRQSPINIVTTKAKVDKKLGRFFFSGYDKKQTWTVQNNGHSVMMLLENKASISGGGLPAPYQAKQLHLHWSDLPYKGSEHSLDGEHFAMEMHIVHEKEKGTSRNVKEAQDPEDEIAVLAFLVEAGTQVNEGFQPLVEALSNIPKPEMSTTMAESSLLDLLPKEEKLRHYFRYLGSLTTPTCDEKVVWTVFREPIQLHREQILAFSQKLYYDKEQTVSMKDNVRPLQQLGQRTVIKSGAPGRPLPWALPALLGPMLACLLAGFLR

EC50 (TRPV1 receptor) [µM]	Ki (hCA IX) [nM]	Ki (hCA II) [nM]	Ki (hCA I) [nM]	Ki (hCA XII) [nM]	Ki (hCA VII) [nM]	Ki (hCA IV) [nM]	fold higher efficacy in inhibiting CA II over (R)-12a (hCA II; ratio of Ki) [fold]	SMILES	pain-relieving effect (licking latency, Cold plate test), in words ([1]; day 15, listed as (R)-43a)	time at which the effect was suppressed ([1]; Cold plate test) [min]	time of peak pain-relieving effect post-administration ([1]; Cold plate test) [min]	pain-relieving effect (licking latency, Cold plate test), in words ([1]; day 15)
> 100	145	437	252	57.4	56.1			NS(=O)(=O)c1ccc(N2CC[C@@H](NC(=O)Nc3ccc([N+](=O)[O-])cc3)C2)nc1 [19a, (R)-6-(3-(3-(4-Nitrophenyl)ureido)pyrrolidin-1-yl)pyridine-3-sulfonamide]				
> 100	93.6	7.5	68.3	83.7	164	2290		NS(=O)(=O)c1ccc(NC(=O)N[C@@H]2CCN(c3cccc([N+](=O)[O-])n3)C2)cc1 [43a, (R)-4-(3-(1-(6-Nitropyridin-2-yl)pyrrolidin-3-yl)ureido)benzenesulfonamide]	dose-dependent effectiveness; also recorded: moderate and shorter relieving outcomes	75	45	
44.2	162	8.6	78.5	238	83.6	238		NS(=O)(=O)c1cccc(NC(=S)N[C@@H]2CCN(c3cccc([N+](=O)[O-])n3)C2)c1 [38a, (R)-3-(3-(1-(6-Nitropyridin-2-yl)pyrrolidin-3-yl)thioureido)benzenesulfonamide]				
> 100		82.2		7.2	26.5	4900		NS(=O)(=O)c1ccc(N2CC[C@@H](NC(=O)Nc3ccc(Cl)c(Cl)c3)C2)nc1 [14a, (R)-6-(3-(3-(3,4-Dichlorophenyl)ureido)pyrrolidin-1-yl)pyridine-3-sulfonamide]				
> 100	378	14.9	31.3	8.3		3090		NS(=O)(=O)c1ccc(N2CC[C@@H](NC(=S)Nc3ccccc3F)C2)nc1 [21a, (R)-6-(3-(3-(2-Fluorophenyl)thioureido)pyrrolidin-1-yl)pyridine-3-sulfonamide]				
> 100		9.6	85.1		55.4	320		NS(=O)(=O)c1cccc(NC(=S)N[C@@H]2CCN(c3ccccn3)C2)c1 [36a, (R)-3-(3-(1-(Pyridin-2-yl)pyrrolidin-3-yl)thioureido)benzenesulfonamide]				
> 100	32.2	15.1		59.3	6.6	2660		NS(=O)(=O)c1ccc(N2CC[C@@H](NC(=O)Nc3ccc(F)cc3)C2)nc1 [7a, (R)-6-(3-(3-(4-Fluorophenyl)ureido)pyrrolidin-1-yl)pyridine-3-sulfonamide]				
> 100	36.1	287	73.5	72.2	68.7	5080		COc1ccccc1NC(=O)N[C@@H]1CCN(c2ccc(S(N)(=O)=O)cn2)C1 [18a, (R)-6-(3-(3-(2-Methoxyphenyl)ureido)pyrrolidin-1-yl)pyridine-3-sulfonamide]				
> 100		446		8.1	41.1	4880		NS(=O)(=O)c1ccc(N2CC[C@@H](NC(=O)Nc3c(F)cc(F)cc3Br)C2)nc1 [22a, (R)-6-(3-(3-(2-Bromo-4,6-difluorophenyl)ureido)pyrrolidin-1-yl)pyridine-3-sulfonamide]				
37.3		8.4	199	6.6				NS(=O)(=O)c1cccc(NC(=O)N[C@@H]2CCN(c3ccc(C(F)(F)F)cn3)C2)c1 [46a, (R)-3-(3-(1-(5-(Trifluoromethyl)pyridin-2-yl)pyrrolidin-3-yl)ureido)benzenesulfonamide]				
8	16.8	6.7	74.8	409	175	471	10.4	NS(=O)(=O)c1ccc(NC(=S)N[C@@H]2CCN(c3cccc([N+](=O)[O-])n3)C2)cc1 [37a, (R)-4-(3-(1-(6-Nitropyridin-2-yl)pyrrolidin-3-yl)thioureido)benzenesulfonamide]			30	more potent and effective than (R)-12a
> 100	9.6		48	9	9.7	774		NS(=O)(=O)c1ccc(NC(=S)N[C@@H]2CCN(c3ccccn3)C2)cc1 [35a, (R)-4-(3-(1-(Pyridin-2-yl)pyrrolidin-3-yl)thioureido)benzenesulfonamide]				
> 100	192	50.2	72.2	6.7	9.4	3560		NS(=O)(=O)c1ccc(N2CC[C@@H](NC(=O)Nc3ccc4c(c3)OCCO4)C2)nc1 [15a, (R)-6-(3-(3-(2,3-Dihydrobenzo[b][1,4]dioxin-6-yl)ureido)pyrrolidin-1-yl)pyridine-3-sulfonamide]				
